Holding throughout (format): cell-based
Assay [1] has as its target T1, caspase-3 (Homo sapiens, UniProt P42574).
T1 construct: endogenous in cells; host or cells: human myeloma cell line KAS
T1 sequence (P42574 29-175 limits assumed): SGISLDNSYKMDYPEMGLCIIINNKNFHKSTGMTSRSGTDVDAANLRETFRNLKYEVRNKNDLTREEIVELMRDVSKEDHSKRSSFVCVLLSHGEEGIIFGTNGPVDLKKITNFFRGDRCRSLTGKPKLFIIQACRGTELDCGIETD
T1 sequence (P42574 176-277 limits assumed): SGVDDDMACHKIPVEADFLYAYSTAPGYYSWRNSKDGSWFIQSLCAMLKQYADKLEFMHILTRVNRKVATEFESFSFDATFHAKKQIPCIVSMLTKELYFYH
As to the kind of experiment: Multiplex caspase assay (antibody-coated bead array), caspase-3. The following applies: myeloma cell line Kas, 8 hours camptothecin + biotin-DEVD-FMK vs. biotin-DEVD-FMK alone. How it is done: (§1) Using the method described in example 1 above Luminex bead sets (colors) 27, 29, and 31 are coupled to antibodies for caspase-3, caspase-7, and caspase 9 respectively. Immediately before using, beads are vortexed for 30 seconds and sonicated for 2 minutes to disperse. Beads are then mixed to provide a 1000 bead/ul (each color) suspension with equivalent representation of each bead set. Cell lysate was prepared from myeloma cell line Kas as describe in example 1. One culture was treated with biotinylated caspase inhibitor biotin-DEVD-FMK for 8 hours and a second culture was treated for 8 hours with the apoptosis inducer camptothecin and biotinylated caspase inhibitor, biotin-DEVD-FMK. A portion of the multiplex bead suspension (2 ul) was incubated with 50 ul of each sample of cell extract diluted to 10 ug/ml in assay buffer (50 mM Tris pH 7.5, 100 mM NaCl, 0.05% tween-20 and 0.1% BSA). Following a 1 hour incubation while shaking in the dark, beads are washed with 100 ul of assay buffer using a filterplate comprising a 1.2 micron PVDF membrane (Millipore). Beads are resuspended in 50 ul of assay buffer containing 2 ug/ml streptavidin-PE conjugate (Pierce) and shaken in the dark for an additional 30 minutes. […] The presence of labeled caspase enzymes on bead surfaces was detected using the Luminex 100 instrumentation. […]

The target in assay [2] is T2, caspase-7 (Homo sapiens, UniProt P55210).
T2 construct: endogenous in cells; host or cells: human myeloma cell line KAS
T2 sequence (P55210 24-198 limits assumed): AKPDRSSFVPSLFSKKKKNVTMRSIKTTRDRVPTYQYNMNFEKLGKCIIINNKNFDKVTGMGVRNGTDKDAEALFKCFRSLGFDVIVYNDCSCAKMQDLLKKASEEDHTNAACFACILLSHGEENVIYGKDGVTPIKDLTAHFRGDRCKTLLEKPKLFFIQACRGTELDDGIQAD
T2 sequence (P55210 207-303 limits assumed): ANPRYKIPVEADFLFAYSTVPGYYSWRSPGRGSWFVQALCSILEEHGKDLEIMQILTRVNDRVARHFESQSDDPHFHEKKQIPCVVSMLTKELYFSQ
As to the kind of experiment: Multiplex caspase assay (antibody-coated bead array), caspase-7. The following applies: myeloma cell line Kas, 8 hours camptothecin + biotin-DEVD-FMK vs. biotin-DEVD-FMK alone. How it is done:
as §1

In assay [3] the target is T2, caspase-7. Description: Competitive multiplex inhibitor assay, caspase-7. The following applies: myeloma cell line Kas, 8 hours camptothecin + biotin-DEVD-FMK. An excerpt:
(§2) In another aspect of the invention a labeled inhibitor and a non-labeled inhibitor are both added to the sample. The non-labeled inhibitor competes with the labeled inhibitor for binding to proteases. With this mode of the invention, new inhibitors may be screened for specificity and the binding constants of new inhibitors may be determined by determining the amount of unlabeled inhibitor necessary to reduce the binding of the labeled inhibitor by a certain amount. Using the methods described in example 2 above Luminex bead sets (colors) 27, 29, and 31 are coupled to antibodies for caspase-3, caspase-7, and caspase 9 respectively. Immediately before using, beads are vortexed for 30 seconds and sonicated for 2 minutes to disperse. Beads are then mixed to provide a 1000 bead/ul (each color) suspension with equivalent representation of each bead set. Cell lysate is prepared from the myeloma cell line Kas as described in Example 1 with the exception that an additional portion of cells is treated for 8 hours with camptothecin, the biotinylated caspase inhibitor biotin-DEVD-FMK and an equal amount of an experimental caspase inhibitor called Mx435. The MX435 inhibitor is not labeled with biotin, and therefore, it competes with the labeled inhibitor for binding to each caspase. […] The presence of labeled caspase enzymes on bead surfaces is detected using the Luminex 100 instrumentation. […]

In assay [4] the target is T3, caspase 9 (Homo sapiens, UniProt P55211).
T3 construct: endogenous in cells; host or cells: human myeloma cell line KAS
T3 sequence (P55211 1-416): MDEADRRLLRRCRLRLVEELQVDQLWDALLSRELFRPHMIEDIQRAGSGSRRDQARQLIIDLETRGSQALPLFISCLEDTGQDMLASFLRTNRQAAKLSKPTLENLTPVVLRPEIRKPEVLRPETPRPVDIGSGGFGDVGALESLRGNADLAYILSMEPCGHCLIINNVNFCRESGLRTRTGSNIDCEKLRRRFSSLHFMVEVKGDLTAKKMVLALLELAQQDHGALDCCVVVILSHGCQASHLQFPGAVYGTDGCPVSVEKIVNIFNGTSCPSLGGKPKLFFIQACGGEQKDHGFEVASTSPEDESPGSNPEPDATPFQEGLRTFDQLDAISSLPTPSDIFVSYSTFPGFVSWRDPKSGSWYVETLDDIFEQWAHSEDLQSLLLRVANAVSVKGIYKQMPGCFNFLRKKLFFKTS
Description: Multiplex caspase assay (antibody-coated bead array), caspase 9. The following applies: myeloma cell line Kas, 8 hours camptothecin + biotin-DEVD-FMK vs. biotin-DEVD-FMK alone. As to the method: as §1

Assay [5] has as its target T1, caspase-3. As to the kind of experiment: Single-plex assay for active caspase-3 (bead capture of caspase-3/biotin-DEVD-FMK complex from treated cells). The following applies: human myeloma cell line KAS, 8 hours, 5 uM camptothecin with 1 uM biotin-DEVD-FMK, vs. culture with inhibitor only. As to the method:
Preparation of Amine-Reactive Beads
Luminex beads were dispersed by vortexing for 15 seconds followed by sonication in a water bath for 2 minutes. To wash, beads were pelleted by centrifugation for 2 minutes at 12,000×g in a microcentrifuge and then resuspended in 100 ul of water. Beads were pelleted again, resuspended in 80 ul of activation buffer (100 mM sodium phosphate, monobasic pH 6.3), vortexed briefly and sonicated for 30 seconds. Reactive n-hydroxysuccinimide (NHS) esters on the bead surface were prepared by adding 10 ul of 50 mg/ml Sulfo-NHS solution (Pierce, Rockland, Ill.) and 10 ul of 50 mg/ml 1-Ethyl-3-[3-dimethylaminopropyl]carbodiimide Hydrochloride (EDC) to the bead suspension, briefly vortexing, and rotating for 20 minutes in the dark. […]
Human myeloma cell line KAS was cultured in RPMI+10% FBS at 37° C. in the presence of 5% CO2. […] After three washes, the cell pellet was vortexed in lysis buffer containing 50 mM Tris-HCl pH 7.5, 150 mM NaCl, 1 mM EDTA, 0.5% NP40, 0.5% Triton X-100 and protease inhibitors (5 ug/ml leupeptin, 2 ug/ml pepstatin A, 1 mM PMSF (phenyl methyl sulfonyl […]). Lysates were stored overnight at −80° C., thawed on ice, vortexed, and spun at 4° C. for 1 hour at 12,000×g in a micro-centrifuge. Protein concentrations in the cleared supernatants were determined spectrophotometrically using Bradford reagent prior to storage at −80° C. […]

Assay [6] has as its target T1, caspase-3. Description: Competitive multiplex inhibitor assay, caspase-3. The following applies: myeloma cell line Kas, 8 hours camptothecin + biotin-DEVD-FMK.
Text: as §2

Assay [7] has as its target T3, caspase 9. As to the kind of experiment: Competitive multiplex inhibitor assay, caspase 9. The following applies: myeloma cell line Kas, 8 hours camptothecin + biotin-DEVD-FMK.
Text: as §2

Results on 1 compound are retold here after patent US20060134774A1, “Detection of protease enzymes” (Marligen Biosciences, Inc., priority 2002, published 2006).

Consider `CC[C@@]1(O)C(=O)OCc2c1cc1n(c2=O)Cc2cc3ccccc3nc2-1` [camptothecin], for which, on caspase-3 [1], the “induction of caspase 3 activity (median fluorescent intensity, FIG. 11)” value is on record as “induced the most”. The “induction of caspase 7 activity (median fluorescent intensity, FIG. 11)” value on caspase-7 [2] was “induced”. In addition, on caspase-7 [3], the “induction of caspase 7 activity by camptothecin (median fluorescent intensity, FIG. 12)” value is “induced”. Besides, the “induction of caspase 9 activity (median fluorescent intensity, FIG. 11)” value at caspase 9 [4] is listed as “induced the least”. The “caspase 3 activity: signal of biotin-labeled inhibitor bound to captured caspase 3 (FIG. 10)” value on caspase-3 [5] is “induced”. Further, at caspase-3 [6], the “induction of caspase 3 activity by camptothecin (median fluorescent intensity, FIG. 12)” value is “induced”. Besides, at caspase 9 [7], the “induction of caspase 9 activity by camptothecin (median fluorescent intensity, FIG. 12)” value is “induced”.
